Test results as given in patent publication US8362236B2, “Macrocyclic compound” (Chugai Seiyaku Kabushiki Kaisha, priority 2007, dated 2013).

Tests used:
[1] = tested on: HCT116 cells; assay: Measurement of cell growth inhibition (Cell Counting Kit-8, four days); conditions: Homo sapiens, HCT-116, 96 h, read-out: Cell growth-inhibiting activity (IC50, μM) Colon cancer HCT116, HCT116 colon cancer cell line, four days culture;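 further: cells exposed to a range of test concentrations at 37 °C in 5% CO2 for four days, then growth read as absorbance with Cell Counting Kit-8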
Protocol: Cells were maintained under conditions recommended by the provider of each cell line. Cells suspended in a medium were added to solutions containing various concentrations of the test substance, and the cells were cultured at 37° C. in a 5% CO2 incubator. Four days later, Cell Counting Kit-8 was added, and absorbance measurements were taken following the protocol included in the kit.

[2] = target: T1, Human HSP90 alpha (Homo sapiens, UniProt P07900); assay: Assay for the activity of inhibiting HSP90 enzyme (ATPase, malachite green); format: biochemical; conditions: purified human HSP90 alpha, 1 mM ATP added, 37° C. for two hours, OD655; read-out: Enzyme-inhibiting activity (IC50, μM) Human HSP90α
T1 construct: His tag (inferred from purification on a HisPrep FF column); made in house; host or cells: E. coli BL21 codon plus (Stratagene)
Protocol: Introduction of pETHuHSP90a into E. coli (BL21 codon plus; Stratagene) was followed by O/N incubation in the presence of 0.1 mM IPTG, and the collected E. coli cells were disrupted by ultrasonication in a Lysis buffer (50 mM Tris-HCl (pH8.0), 10 mM MgCl2, 0.1% Triton X-100, Protease inhibitor cocktail tablets (Roche Diagnostics)). The cell lysate solution was centrifuged (10,000 rpm×30 minutes), and the supernatant obtained after centrifugation was used as a crude extract. The crude extract was fractionated using HisPrep FF column and HiTrap Q column (Amersham) to prepare a purified enzyme solution.
An enzyme solution for assays was prepared by dilution of the purified enzyme solution using an assay buffer (50 mM Tris HCl pH7.6, 20 mM KCl, 5 mM MgCl2).
10 μL each of various concentrations of the test substances (10% DMSO solution) was added to each well, and for the positive control wells, 10 μL of 10% DMSO was added. 10 μL of 10% DMSO was also added to the negative control well.
10 μL of 1 mM ATP was added to all of the wells, and the reaction was carried out at 37° C. for two hours.

Structure (SMILES) | IC50 [1] [µM] | IC50 [2] [µM]
Cc1cc(C)c2cc1C(=O)N(C)CCCNC(=O)CCSc1cc-2nc(N)n1 [Compound 3, 4-amino-15,18,20-trimethyl-7-thia-3,5,11,15-tetraazatricyclo[15.3.1.1^2,6]docosa-1(20),2(22),3,5,17(21),18-hexane-10,16-dione] | 0.92 | 1.6
Cc1cc(C)c2cc1C(=O)NCCNC(=O)CCCSc1cc-2nc(N)n1 [Compound 4, 4-amino-18,20-dimethyl-7-thia-3,5,12,15-tetraazatricyclo[15.3.1.1^2,6]docosa-1(20),2(22),3,5,17(21),18-hexaene-11,16-dione] | – | 1
Cc1cc(C)c2cc1C(=O)NCCCCNC(=O)CCCSc1cc-2nc(N)n1 [Compound 5, 4-amino-20,22-dimethyl-7-thia-3,5,12,17-tetraazatricyclo[17.3.1.1^2,6]tetracosa-1(22),2(24),3,5,19(23),20-hexane-11,18-dione] | 0.5 | 1
Cc1cc(C)c2cc1C(=O)NCCCCCNC(=O)C(C)CSc1cc-2nc(N)n1 (centres unmarked) [Compound 7, 4-amino-9,20,22-trimethyl-7-thia-3,5,11,17-tetraazatricyclo[17.3.1.1^2,6]tetracosa-1(22),2(24),3,5,19(23),20-hexaene-10,18-dione] | 0.4 | 1.6
Nc1nc2cc(n1)-c1cc(c(Cl)cc1Cl)C(=O)NCCCNC(=O)CCS2 [Compound 8, 4-amino-18,20-dichloro-7-thia-3,5,11,15-tetraazatricyclo[15.3.1.1^2,6]docosa-1(20),2(22),3,5,17(21),18-hexaene-10,16-dione] | 0.21 | 2
COc1cc(C)c2cc1C(=O)NCCCC(=O)NCCSc1cc-2nc(N)n1 [Compound 9, 4-amino-18-methoxy-20-methyl-7-thia-3,5,10,15-tetraazatricyclo[15.3.1.1^2,6]docosa-1(20),2(22),3,5,17(21),18-hexaene-11,16-dione] | > 10 | 1.9
COc1cc(C)c2cc1C(=O)N(C)CCCC(=O)NCCSc1cc-2nc(N)n1 [Compound 10, 4-amino-18-methoxy-15,20-dimethyl-7-thia-3,5,10,15-tetraazatricyclo[15.3.1.1^2,6]docosa-1(20),2(22),3,5,17(21),18-hexaene-11,16-dione] | > 10 | 1.1
Cc1cc(C)c2cc1C(=O)NCCCC(=O)NCCSc1cc-2nc(N)n1 [Compound 11, 4-amino-18,20-dimethyl-7-thia-3,5,10,15-tetraazatricyclo[15.3.1.1^2,6]docosa-1(20),2(22),3,5,17(21),18-hexaene-11,16-dione] | – | 1.2
Cc1cc(C)c2cc1C(=O)NCCC(=O)NCCSc1cc-2nc(N)n1 [Compound 12, 4-amino-17,19-dimethyl-7-thia-3,5,10,14-tetraazatricyclo[14.3.1.1^2,6]henicosa-1(19),2(21),3,5,16(20),17-hexaene-11,15-dione] | 0.72 | 1.3
Cc1cc(C)c2cc1C(=O)N(C)CCCC(=O)NCCSc1cc-2nc(N)n1 [Compound 13, 4-amino-15,18,20-trimethyl-7-thia-3,5,10,15-tetraazatricyclo[15.3.1.1^2,6]docosa-1(20),2(22),3,5,17(21),18-hexaene-11,16-dione] | 4.4 | 1.2
Cc1cc(C)c2cc1C(=O)NCCCCCC(=O)NCCSc1cc-2nc(N)n1 [Compound 14, 4-amino-20,22-dimethyl-7-thia-3,5,10,17-tetraazatricyclo[17.3.1.1^2,6]tetracosa-1(22),2(24),3,5,19(23),20-hexaene-11,18-dione] | 0.15 | 0.8
Nc1nc2cc(n1)-c1cc(c(Cl)cc1Cl)C(=O)NCCCC(=O)NCCS2 [Compound 15, 4-amino-18,20-dichloro-7-thia-3,5,10,15-tetraazatricyclo[15.3.1.1^2,6]docosa-1(20),2(22),3,5,17(21),18-hexaene-11,16-dione] | 0.14 | 1.6
COc1cc(C)c2cc1C(=O)NCCCOc1cccc(c1)Sc1cc-2nc(N)n1 [Compound 16, 4-amino-20-methoxy-22-methyl-13-oxa-7-thia-3,5,17-triazatricyclo[17.3.1.1^2,6.1^8,12]pentacosa-1(22),2(24),3,5,8(25),9,11,19(23),20-nonaen-18-one] | – | 1.6
CCOc1cc(C)c2cc1C(=O)NCCCOc1cccc(c1)Sc1cc-2nc(N)n1 [Compound 17, 4-amino-20-ethoxy-22-methyl-13-oxa-7-thia-3,5,17-triazatricyclo[17.3.1.1^2,6.1^8,12]pentacosa-1(22),2(24),3,5,8(25),9,11,19(23),20-nonaen-18-one] | – | 1.3
Nc1nc2cc(n1)-c1cc(c(Cl)cc1Cl)OCCCCOc1cccc(c1)S2 [Compound 21, 4-amino-20,22-dichloro-13,18-dioxa-7-thia-3,5-diazatricyclo[17.3.1.1^2,6.1^8,12]pentacosa-1(23),2,4,6(24),8,10,12(25),19,21-nonaene] | – | 1.8
Nc1nc2cc(n1)-c1cc(c(Cl)cc1Cl)OCCCCCOc1cccc(c1)S2 [Compound 22, 4-amino-21,23-dichloro-13,19-dioxa-7-thia-3,5-diazatricyclo[18.3.1.1^2,6.1^8,12]hexacosa-1(24),2,4,6(24),8,10,12(26),20,22-nonaene] | 2.4 | 1.7
Nc1nc2cc(n1)-c1cc(c(Cl)cc1Cl)OCCOCCOc1cccc(c1)S2 [Compound 23, 21,23-dichloro-13,16,19-trioxa-7-thia-3,5-diazatricyclo[18.3.1.1^2,6.1^8,12]hexacosa-1(23),2(25),3,5,8(26),9,11,20(24),21-nonaen-4-ylamine] | 1.4 | 1.1
Nc1nc2nc(n1)-c1cc(c(Cl)cc1Cl)OCCCCOc1cccc(c1)S2 [Compound 26, 20,22-dichloro-13,18-dioxa-7-thia-3,5,24-triazatricyclo[17.3.1.1^2,6.1^8,12]pentacosa-1(22),2(24),3,5,8(25),9,11,19(23),20-nonaen-4-ylamine] | 7.4 | 3.3

Second part, the molecule after the results:

IC50 [1] [µM] | IC50 [2] [µM] | Structure (SMILES)
1.4 | 2.1 | Nc1nc2nc(n1)-c1cc(c(Cl)cc1Cl)OCCOCCOc1cccc(c1)S2 [Compound 27, 21,23-dichloro-13,16,19-trioxa-7-thia-3,5,25-triazatricyclo[18.3.1.1^2,6.1^8,12]hexacosa-1(23),2(25),3,5,8(25),9,11,20(24),21-nonaen-4-ylamine]
0.2 | 1.4 | Nc1nc2cc(n1)-c1cc(c(Cl)cc1Cl)C(=O)NCCCCCC(=O)NCCS2 [Compound 28, 4-amino-20,22-dichloro-7-thia-3,5,10,17-tetraazatricyclo[17.3.1.1^2,6]tetracosa-1(22),2(24),3,5,19(23),20-hexaene-11,18-dione]
0.3 | 1.7 | Cc1cc(C)c2cc1C(=O)NCCOCCNC(=O)CCSc1cc-2nc(N)n1 [Compound 29, 4-amino-20,22-dimethyl-14-oxa-7-thia-3,5,11,17-tetraazatricyclo[17.3.1.1^2,6]tetracosa-1(22),2(24),3,5,19(23),20-hexaene-10,18-dione]
0.5 | 1.8 | Cc1cc(C)c2cc1C(=O)NCCN(C)CCNC(=O)CCSc1cc-2nc(N)n1 [Compound 30, 4-amino-14,20,22-trimethyl-7-thia-3,5,11,14,17-pentaazatricyclo[17.3.1.1^2,6]tetracosa-1(22),2(24),3,5,19(23),20-hexaene-10,18-dione]
1.3 | 0.8 | Cc1cc(C)c2cc1C(=O)NC[C@@H](O)CNC(=O)CCSc1cc-2nc(N)n1 [Compound 31, (S)-4-amino-13-hydroxy-18,20-dimethyl-7-thia-3,5,11,15-tetraazatricyclo[15.3.1.1^2,6]docosa-1(20),2(22),3,5,17(21),18-hexaene-10,16-dione]
0.4 | 0.5 | Cc1cc(C)c2cc1C(=O)NCCCN(C)C(=O)CCSc1cc-2nc(N)n1 [Compound 32, 4-amino-11,18,20-trimethyl-7-thia-3,5,11,15-tetraazatricyclo[15.3.1.1^2,6]docosa-1(20),2,4,6(22),17(21),18-hexaene-10,16-dione]
1.1 | 2.8 | Cc1cc(C)c2cc1C(=O)NCCCN(CCO)C(=O)CCSc1cc-2nc(N)n1 [Compound 34, 4-amino-11-(2-hydroxyethyl)-18,20-dimethyl-7-thia-3,5,11,15-tetraazatricyclo[15.3.1.1^2,6]docosa-1(20),2,4,6(22),17(21),18-hexaene-10,16-dione]
1.8 | 0.7 | Cc1cc(C)c2cc1C(=O)NCCCN(CCN1CCOCC1)C(=O)CCSc1cc-2nc(N)n1 [Compound 36, 4-amino-18,20-dimethyl-11-(2-morpholin-4-ylethyl)-7-thia-3,5,11,15-tetraazatricyclo[15.3.1.1^2,6]docosa-1(20),2,4,6(22),17(21),18-hexaene-10,16-dione]
